Assay results reported in PMC6096483, “Structural studies of the unusual metal-ion site of the GH124 endoglucanase from Ruminiclostridium thermocellum” (Acta Crystallographica. Section F, Structural Biology …, 2018).

Molecular target: T1, RtGH124 (GH124 endoglucanase GH124A) (Acetivibrio thermocellus, UniProt A3DCJ4)
T1 construct: gene Cthe_0435; GH124 catalytic domain without dockerin; E. coli BL21(DE3)pLysS; N-terminal His6-3C tag cleaved, leaving GPA before […]; ends ...DRSNPWEIYY; 25304 Da calculated; His264 partially 2-oxohistidine
T1 sequence (A3DCJ4 entry or part of it): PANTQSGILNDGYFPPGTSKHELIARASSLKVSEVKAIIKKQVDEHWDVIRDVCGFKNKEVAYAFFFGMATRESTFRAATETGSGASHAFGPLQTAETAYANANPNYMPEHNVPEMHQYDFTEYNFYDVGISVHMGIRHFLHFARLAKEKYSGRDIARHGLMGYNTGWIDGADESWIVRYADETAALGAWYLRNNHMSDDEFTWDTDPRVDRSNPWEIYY
Assay: X-ray crystallography (co-crystallization, […] A)
Type: binding
Conditions: active site, two cellotrioses on either side of catalytic Glu203; Mn2+ at distant metal site; Tacsimate pH 5.0; 6.7 mM ligand

OC[C@H]1O[C@@H](O[C@H]2[C@H](O)[C@@H](O)[C@H](O[C@H]3[C@H](O)[C@@H](O)C(O)O[C@@H]3CO)O[C@@H]2CO)[C@H](O)[C@@H](O)[C@@H]1O (stereo partly shown) [G3, cellotriose]
X-ray crystallography (co-crystallization, 1.03 A): Structures of RtGH124 co-crystallized with cellotriose (G3) showed an active site with two cellotrioses
